In ChEMBL document CHEMBL4673296 (J Med Chem, 2020):
Blank lines part the entries; values can stand above or below the molecule they belong to. Calls of active or inactive are those of the source. No cut-off for these calls is given here.

Tests used:
[1] = molecular target: T1, Serine/threonine-protein kinase ULK1 (Homo sapiens, UniProt O75385); test: Inhibition of ULK1 (unknown origin) expressed in HEK293T cells incubated for 2 hrs by NanoBRET assay; assay type: cell-based
T1 sequence (O75385 whole entry): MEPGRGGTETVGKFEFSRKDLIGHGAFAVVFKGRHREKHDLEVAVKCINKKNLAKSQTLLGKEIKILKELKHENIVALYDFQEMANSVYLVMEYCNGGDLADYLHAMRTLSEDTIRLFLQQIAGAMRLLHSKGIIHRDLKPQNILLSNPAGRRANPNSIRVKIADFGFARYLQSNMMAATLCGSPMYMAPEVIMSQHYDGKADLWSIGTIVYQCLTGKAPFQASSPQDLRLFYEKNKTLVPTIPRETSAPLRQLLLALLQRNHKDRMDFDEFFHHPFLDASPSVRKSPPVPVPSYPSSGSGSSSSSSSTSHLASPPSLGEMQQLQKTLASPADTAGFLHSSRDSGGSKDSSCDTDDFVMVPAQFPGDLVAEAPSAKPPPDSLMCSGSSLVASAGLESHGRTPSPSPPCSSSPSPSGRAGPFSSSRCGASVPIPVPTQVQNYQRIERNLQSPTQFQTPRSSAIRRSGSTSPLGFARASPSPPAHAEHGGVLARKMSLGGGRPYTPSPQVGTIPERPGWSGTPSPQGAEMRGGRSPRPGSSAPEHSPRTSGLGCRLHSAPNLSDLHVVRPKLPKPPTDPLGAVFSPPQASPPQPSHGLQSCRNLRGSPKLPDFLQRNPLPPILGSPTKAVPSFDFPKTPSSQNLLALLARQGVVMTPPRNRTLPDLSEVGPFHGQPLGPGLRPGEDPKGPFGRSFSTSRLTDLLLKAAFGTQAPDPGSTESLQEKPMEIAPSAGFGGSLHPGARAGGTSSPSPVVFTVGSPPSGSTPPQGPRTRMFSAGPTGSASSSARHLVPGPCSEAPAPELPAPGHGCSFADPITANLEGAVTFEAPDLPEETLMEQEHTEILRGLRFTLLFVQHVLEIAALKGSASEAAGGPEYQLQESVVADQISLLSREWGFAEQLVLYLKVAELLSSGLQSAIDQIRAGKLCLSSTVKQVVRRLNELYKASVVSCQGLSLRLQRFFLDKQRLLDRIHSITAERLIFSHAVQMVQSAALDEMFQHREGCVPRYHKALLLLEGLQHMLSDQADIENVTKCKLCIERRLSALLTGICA

[2] = molecular target: T1, Serine/threonine-protein kinase ULK1; test: Inhibition of recombinant human ULK1 (1-649) expressed in Sf9 cells using myelin basic protein as substrate by ADP-glo assay
[3] = Apparent permeability of the compound across basolateral side to apical side in human Caco2 cells; assay type: ADME, cell-based; details: Caco-2
[4] = Efflux ratio of apparent permeability from basolateral side to apical side over apical side to basolateral side in human Caco2 cells; assay type: ADME, cell-based; details: Caco-2
[5] = Apparent permeability of the compound across apical side to basolateral side in human Caco2 cells; assay type: ADME, cell-based; details: Caco-2
[6] = molecular target: T2, Serine/threonine-protein kinase ULK1 (Homo sapiens) (UniProt O75385); test: Inhibition of Myc-tagged ULK1 (unknown origin) expressed in HEK293T cells cotransfected with wild-type Flag tagged Vps34 assessed as decrease in pVPS34 Ser249 at 10 uM measured after 1 hr by Western blot analysis relative to control; assay type: cell-based
T2 sequence (whole entry): T1 sequence (O75385 whole entry)

[7] = molecular target: T3, Serine/threonine-protein kinase ULK2 (Homo sapiens, UniProt Q8IYT8); test: Inhibition of recombinant human ULK2 (1 to 478 residues) expressed in Sf9 cells using myelin basic protein as substrate by ADP-glo assay
T3 sequence (Q8IYT8 whole entry): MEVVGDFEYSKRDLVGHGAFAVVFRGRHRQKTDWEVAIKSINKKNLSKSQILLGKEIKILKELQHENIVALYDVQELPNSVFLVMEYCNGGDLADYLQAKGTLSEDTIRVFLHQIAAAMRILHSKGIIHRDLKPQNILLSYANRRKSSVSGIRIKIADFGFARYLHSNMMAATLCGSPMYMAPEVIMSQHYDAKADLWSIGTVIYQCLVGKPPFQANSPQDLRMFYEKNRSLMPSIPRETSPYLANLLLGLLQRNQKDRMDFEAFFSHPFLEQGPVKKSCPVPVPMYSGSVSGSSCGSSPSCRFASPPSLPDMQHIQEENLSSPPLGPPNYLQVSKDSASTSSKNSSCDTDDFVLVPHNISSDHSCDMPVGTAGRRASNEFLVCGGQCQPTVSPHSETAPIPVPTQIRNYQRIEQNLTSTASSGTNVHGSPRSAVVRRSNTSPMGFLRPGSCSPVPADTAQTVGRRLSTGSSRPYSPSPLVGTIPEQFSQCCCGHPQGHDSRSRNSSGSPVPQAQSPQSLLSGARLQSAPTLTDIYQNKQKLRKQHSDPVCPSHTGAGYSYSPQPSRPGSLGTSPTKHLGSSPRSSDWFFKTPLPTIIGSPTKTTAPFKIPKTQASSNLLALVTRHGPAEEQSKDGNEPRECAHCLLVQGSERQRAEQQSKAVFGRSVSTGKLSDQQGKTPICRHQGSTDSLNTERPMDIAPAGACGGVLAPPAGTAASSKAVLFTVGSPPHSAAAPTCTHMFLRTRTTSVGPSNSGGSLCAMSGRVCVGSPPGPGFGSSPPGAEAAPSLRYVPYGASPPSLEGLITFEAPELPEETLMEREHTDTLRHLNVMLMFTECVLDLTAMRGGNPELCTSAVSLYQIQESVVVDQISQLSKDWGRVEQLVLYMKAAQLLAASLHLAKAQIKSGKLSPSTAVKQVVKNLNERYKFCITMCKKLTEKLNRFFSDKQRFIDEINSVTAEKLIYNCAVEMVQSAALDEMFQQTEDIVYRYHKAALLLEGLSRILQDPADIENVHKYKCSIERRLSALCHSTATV

[8] = molecular target: T2, Serine/threonine-protein kinase ULK1 (Homo sapiens); test: Inhibition of Myc-tagged ULK1 (unknown origin) expressed in HEK293T cells cotransfected with wild-type Flag tagged Beclin-1 assessed as decrease in pBeclin1 Ser15 at 10 uM measured after 1 hr by Western blot analysis; assay type: cell-based
[9] = molecular target: T3, Serine/threonine-protein kinase ULK2; test: Inhibition of ULK2 (unknown origin) expressed in HEK293T cells incubated for 2 hrs by NanoBRET assay; assay type: cell-based
[10] = test system: MDA-MB-468; test: Reduction in autophagosome accumulation in human MDA-MB-468 cells at 10 uM by transmission electron microscopic analysis; assay type: functional, cell-based
[11] = Inhibition of starvation-induced autophagic flux in human MDA-MB-468 cells expressing tandem-labelled mCherryEGFP-LC3 chimeric protein at 10 uM measured after 18 hrs in EBSS media by flow cytometry (Rvb >90%); assay type: functional
[12] = test system: MDA-MB-468; test: cells; details: Homo sapiens, MDA-MB-468, 72 h
Description: Cytotoxicity against human MDA-MB-468 cells measured after 72 hrs by Celltiter-Glo assay

Structure (SMILES): FC(F)(F)c1cnc(Nc2ccc3c(c2)OCCO3)nc1NC1CC1
IC50 [1]: 4480 nM
IC50 [2]: 14 nM

Structure (SMILES): FC(F)(F)c1cnc(Nc2ccc3c(c2)OCCCO3)nc1NC1CC1
Papp B→A [3]: > 10 ×10⁻⁶ cm/s
efflux ratio [4]: < 2
IC50 [1]: 1600 nM
IC50 [2]: 7 nM
Papp A→B [5]: > 10 ×10⁻⁶ cm/s

Structure (SMILES): CNc1nc(Nc2cnc3[nH]ccc3c2)ncc1C(F)(F)F
IC50 [1]: 3630 nM
IC50 [2]: 34 nM

Structure (SMILES): FC(F)(F)c1cnc(Nc2cnc3[nH]ccc3c2)nc1NC1CCC1
IC50 [1]: > 10000 nM
IC50 [2]: 17 nM

Structure (SMILES): FC(F)(F)c1cnc(Nc2ccc3nn[nH]c3c2)nc1NC1CC1
IC50 [1]: 1170 nM
IC50 [2]: 6 nM

Structure (SMILES): COc1cncc(Nc2ncc(C(F)(F)F)c(NC3CC3)n2)c1
Papp B→A [3]: > 10 ×10⁻⁶ cm/s
inhibition [6]: 70%
IC50 [7]: 695 nM
inhibition [8]: Active
IC50 [9]: 1890 nM
Papp A→B [5]: > 10 ×10⁻⁶ cm/s

Structure (SMILES): FC(F)(F)c1cnc(Nc2ccnnc2)nc1NC1CC1
IC50 [1]: 1610 nM
IC50 [2]: 40 nM

Structure (SMILES): CNC(=O)c1ccccc1Oc1nc(Nc2cc(OC)c(OC)c(OC)c2)ncc1Br
inhibition [10]: Active
IC50 [7]: 2450 nM
inhibition at 10 µM [11]: 10%
IC50 [9]: 4580 nM

Structure (SMILES): Nc1nc(Nc2ccc3c(c2)OCO3)ncc1C(F)(F)F
IC50 [1]: > 10000 nM
IC50 [2]: 230 nM

Structure (SMILES): FC1(F)Oc2ccc(Nc3ncc(C(F)(F)F)c(NC4CC4)n3)cc2O1
IC50 [1]: > 10000 nM
IC50 [2]: 42 nM

Structure (SMILES): FC(F)(F)c1cnc(Nc2ccc3nc[nH]c3c2)nc1NC1CC1
Papp B→A [3]: > 10 ×10⁻⁶ cm/s
inhibition [6]: 70%
IC50 [7]: 720 nM
inhibition [8]: Active
IC50 [9]: 703 nM
Papp A→B [5]: > 10 ×10⁻⁶ cm/s

Structure (SMILES): FC(F)(F)c1cnc(Nc2cnc3[nH]ccc3c2)nc1NC1CC1
IC50 [1]: 1930 nM
IC50 [2]: 29 nM

Structure (SMILES): FC(F)(F)c1cnc(Nc2ccc3c(c2)OCO3)nc1NC1CC1
IC50 [1]: > 10000 nM
IC50 [2]: 21 nM

Structure (SMILES): FC(F)(F)c1cnc(Nc2ccc3ncoc3c2)nc1NC1CC1
Papp B→A [3]: > 10 ×10⁻⁶ cm/s
inhibition [6]: 70%
IC50 [7]: 1190 nM
efflux ratio [4]: < 2
IC50 [1]: 1020 nM
inhibition [8]: Active
IC50 [9]: 4260 nM
IC50 [2]: 19 nM
Papp A→B [5]: > 10 ×10⁻⁶ cm/s

Structure (SMILES): O=C1CCCc2cc(Nc3ncc(C(F)(F)F)c(NC4CC4)n3)ccc21
IC50 [1]: 1360 nM
IC50 [2]: 3 nM

Structure (SMILES): CCN1CCOc2cc(Nc3ncc(C(F)(F)F)c(NC4CC4)n3)cnc21
IC50 [1]: 1210 nM
IC50 [2]: 31 nM

Now from value to molecule:

IC50 [1]: 1710 nM
IC50 [2]: 30 nM
Structure (SMILES): O=C(C1CC1)N(C(=O)C1CC1)c1ccc(Nc2ncc(C(F)(F)F)c(NC3CC3)n2)cc1

IC50 [12]: 7600 nM
Structure (SMILES): NC(=O)c1cccc2cn(-c3ccc([C@@H]4CCCNC4)cc3)nc12 [NIRAPARIB]

IC50 [1]: 1330 nM
IC50 [2]: 13 nM
Structure (SMILES): O=C(Nc1ccc(Nc2ncc(C(F)(F)F)c(NC3CC3)n2)cc1)C1CC1

IC50 [1]: 9840 nM
IC50 [2]: 23 nM
Structure (SMILES): FC(F)(F)c1cnc(Nc2ccc3[nH]ccc3c2)nc1NC1CC1

IC50 [1]: > 10000 nM
IC50 [2]: 16 nM
Structure (SMILES): FC(F)(F)c1cnc(Nc2cnc3ccccc3c2)nc1NC1CC1

Papp B→A [3]: > 10 ×10⁻⁶ cm/s
Papp A→B [5]: > 10 ×10⁻⁶ cm/s
Structure (SMILES): Oc1ccccc1Nc1ncc(C(F)(F)F)c(NC2CC2)n1

Papp B→A [3]: > 10 ×10⁻⁶ cm/s
inhibition [6]: 70%
IC50 [7]: 1330 nM
efflux ratio [4]: < 2
IC50 [1]: 679 nM
inhibition [8]: Active
IC50 [9]: 1690 nM
IC50 [2]: 20 nM
Papp A→B [5]: > 10 ×10⁻⁶ cm/s
Structure (SMILES): Nc1ccc(Nc2ncc(C(F)(F)F)c(NC3CC3)n2)cc1

Papp B→A [3]: > 10 ×10⁻⁶ cm/s
inhibition [6]: 70%
IC50 [7]: 714 nM
efflux ratio [4]: < 2
IC50 [1]: 739 nM
inhibition [8]: Active
IC50 [9]: 1650 nM
IC50 [2]: 5 nM
Papp A→B [5]: > 10 ×10⁻⁶ cm/s
Structure (SMILES): FC(F)(F)c1cnc(Nc2ccc3ncccc3c2)nc1NC1CC1
